In patent US20230085307A1, “PYRIDAZINONE COMPOUND AND HERBICIDE” (NISSAN CHEMICAL CORPORATION, priority 2019, published 2023):

Legend:
redroot pigweed [1] = test: Test Example 4: herbicidal effect by soil treatment (Table 19, symbol N); format: in vivo, redroot pigweed (Amaranthus retroflexus); details: amount of applied herbicide 320 g/ha
Outline: (§1)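 Pre-emergence style soil spray: seeds under ~1.5 cm sterilized diluvial soil received a uniform coat of emulsion diluted to the predetermined herbicide amount. Greenhouse 25–30° C; readout at week three on previously defined criteria.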

green foxtail [2] = test: Test Example 4: herbicidal effect by soil treatment (Table 19, symbol G); format: in vivo, green foxtail (Setaria viridis); details: amount of applied herbicide 320 g/ha
Outline: as §1

blackgrass [3] = test: Test Example 4: herbicidal effect by soil treatment (Table 19, symbol J); format: in vivo, blackgrass (Alopecurus myosuroides); details: amount of applied herbicide 320 g/ha
Outline: as §1

persian speedwell [4] = test: Test Example 4: herbicidal effect by soil treatment (Table 19, symbol R); format: in vivo, Persian speedwell (Veronica persica); details: amount of applied herbicide 320 g/ha
Outline: as §1

barnyard grass [5] = test: Test Example 5: herbicidal effect by foliage application, plastic box (Table 20, symbol H); format: in vivo, barnyard grass (Echinochloa crus-galli); details: amount of applied herbicide 320 g/ha; foliage application after 14-day growth; evaluated three weeks after application
Outline: (§2)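 Plants were sown into sterilized diluvial soil under about 1.5 cm cover and kept in a greenhouse at 25° C. to 30° C. Fourteen days on, foliage received an even spray of the diluted emulsion. Herbicidal or crop effect was judged three weeks afterwards.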

lambsquarters [6] = test: Test Example 5: herbicidal effect by foliage application, plastic box (Table 20, symbol O); format: in vivo, lambsquarters (Chenopodium album); details: amount of applied herbicide 320 g/ha; foliage application after 14-day growth; evaluated three weeks after application
Outline: as §2

Italian ryegrass [7] = test: Test Example 4: herbicidal effect by soil treatment (Table 19, symbol K); format: in vivo, Italian ryegrass (Lolium multiflorum); details: amount of applied herbicide 320 g/ha
Outline: as §1

persian speedwell [8] = test: Test Example 5: herbicidal effect by foliage application, plastic box (Table 20, symbol R); format: in vivo, Persian speedwell (Veronica persica); details: amount of applied herbicide 320 g/ha; foliage application after 14-day growth; evaluated three weeks after application
Outline: as §2

redroot pigweed [9] = test: Test Example 5: herbicidal effect by foliage application, plastic box (Table 20, symbol N); format: in vivo, redroot pigweed (Amaranthus retroflexus); details: amount of applied herbicide 320 g/ha; foliage application after 14-day growth; evaluated three weeks after application
Outline: as §2

chickweed [10] = test: Test Example 5: herbicidal effect by foliage application, plastic box (Table 20, symbol P); format: in vivo, common chickweed (Stellaria media); details: amount of applied herbicide 320 g/ha; foliage application after 14-day growth; evaluated three weeks after application
Outline: as §2

wild oat [11] = test: Test Example 4: herbicidal effect by soil treatment (Table 19, symbol I); format: in vivo, wild oat (Avena fatua); details: amount of applied herbicide 320 g/ha
Outline: as §1

windgrass [12] = test: Test Example 5: herbicidal effect by foliage application, plastic box (Table 20, symbol L); format: in vivo, windgrass (Apera spica-venti); details: amount of applied herbicide 320 g/ha; foliage application after 14-day growth; evaluated three weeks after application
Outline: as §2

lambsquarters [13] = test: Test Example 4: herbicidal effect by soil treatment (Table 19, symbol O); format: in vivo, lambsquarters (Chenopodium album); details: amount of applied herbicide 320 g/ha
Outline: as §1

Chinese sprangletop = test: Test Example 3: herbicidal effect by foliage application, Wagner pot (Table 18, symbol D); format: in vivo, chinese sprangletop (Leptochloa chinensis); details: 320 g/ha
Outline: (§3)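 Plants were sown in alluvial soil held under 0.1–0.5 cm standing water and grown 14 days in a greenhouse at 25–30 °C. An emulsifiable formulation, water-diluted to the set dose, was then sprayed onto the foliage, and effects were scored three weeks later using previously defined criteria.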

barnyard grass [14] = test: Test Example 3: herbicidal effect by foliage application, Wagner pot (Table 18, symbol H); format: in vivo, barnyard grass (Echinochloa crus-galli); details: 320 g/ha
Outline: as §3

velvetleaf [15] = test: Test Example 5: herbicidal effect by foliage application, plastic box (Table 20, symbol M); format: in vivo, velvetleaf (Abutilon theophrasti); details: amount of applied herbicide 320 g/ha; foliage application after 14-day growth; evaluated three weeks after application
Outline: as §2

southern crabgrass [16] = test: Test Example 4: herbicidal effect by soil treatment (Table 19, symbol F); format: in vivo, southern crabgrass (Digitaria ciliaris); details: amount of applied herbicide 320 g/ha
Outline: as §1

green foxtail [17] = test: Test Example 5: herbicidal effect by foliage application, plastic box (Table 20, symbol G); format: in vivo, green foxtail (Setaria viridis); details: amount of applied herbicide 320 g/ha; foliage application after 14-day growth; evaluated three weeks after application
Outline: as §2

barnyard grass [18] = test: Test Example 4: herbicidal effect by soil treatment (Table 19, symbol H); format: in vivo, barnyard grass (Echinochloa crus-galli); details: amount of applied herbicide 320 g/ha
Outline: as §1

Italian ryegrass [19] = test: Test Example 5: herbicidal effect by foliage application, plastic box (Table 20, symbol K); format: in vivo, Italian ryegrass (Lolium multiflorum); details: amount of applied herbicide 320 g/ha; foliage application after 14-day growth; evaluated three weeks after application
Outline: as §2

chickweed [20] = test: Test Example 4: herbicidal effect by soil treatment (Table 19, symbol P); format: in vivo, common chickweed (Stellaria media); details: amount of applied herbicide 320 g/ha
Outline: as §1

windgrass [21] = test: Test Example 4: herbicidal effect by soil treatment (Table 19, symbol L); format: in vivo, windgrass (Apera spica-venti); details: amount of applied herbicide 320 g/ha
Outline: as §1

southern crabgrass [22] = test: Test Example 5: herbicidal effect by foliage application, plastic box (Table 20, symbol F); format: in vivo, southern crabgrass (Digitaria ciliaris); details: amount of applied herbicide 320 g/ha; foliage application after 14-day growth; evaluated three weeks after application
Outline: as §2

rice flat sedge = test: Test Example 3: herbicidal effect by foliage application, Wagner pot (Table 18, symbol E); format: in vivo, rice flat sedge (Cyperus iria); details: 320 g/ha
Outline: as §3

blackgrass [23] = test: Test Example 5: herbicidal effect by foliage application, plastic box (Table 20, symbol J); format: in vivo, blackgrass (Alopecurus myosuroides); details: amount of applied herbicide 320 g/ha; foliage application after 14-day growth; evaluated three weeks after application
Outline: as §2

velvetleaf [24] = test: Test Example 4: herbicidal effect by soil treatment (Table 19, symbol M); format: in vivo, velvetleaf (Abutilon theophrasti); details: amount of applied herbicide 320 g/ha
Outline: as §1

wild oat [25] = test: Test Example 5: herbicidal effect by foliage application, plastic box (Table 20, symbol I); format: in vivo, wild oat (Avena fatua); details: amount of applied herbicide 320 g/ha; foliage application after 14-day growth; evaluated three weeks after application
Outline: as §2

CCCC(=O)Oc1c(C)nn(C)c(=O)c1-c1c(-c2ccc(F)cc2)sc2cc(Cl)c(Cl)cc12 [5-040]
N: redroot pigweed, herbicidal effect grade (redroot pigweed [1]): 4 (Herbicidal rate of 70% or more and less than 90%) | G: green foxtail, herbicidal effect grade (green foxtail [2]): 3 (Herbicidal rate of 40% or more and less than 70%) | J: blackgrass, herbicidal effect grade (blackgrass [3]): 0 (Herbicidal rate of 5% or less (almost no effect)) | R: persian speedwell, herbicidal effect grade (persian speedwell [4]): 0 (Herbicidal rate of 5% or less (almost no effect)) | Herbicidal effect by foliage application, H: barnyard grass (barnyard grass [5]): 2 (Herbicidal rate of 20% or more and less than 40%) | Herbicidal effect by foliage application, O: lambsquarters (lambsquarters [6]): 3 (Herbicidal rate of 40% or more and less than 70%) | K: Italian ryegrass, herbicidal effect grade (Italian ryegrass [7]): 0 (Herbicidal rate of 5% or less (almost no effect)) | Herbicidal effect by foliage application, R: persian speedwell (persian speedwell [8]): 4 (Herbicidal rate of 70% or more and less than 90%) | Herbicidal effect by foliage application, N: redroot pigweed (redroot pigweed [9]): 3 (Herbicidal rate of 40% or more and less than 70%) | Herbicidal effect by foliage application, P: chickweed (chickweed [10]): 5 (Herbicidal rate of 90% or more (almost completely withered)) | I: wild oat, herbicidal effect grade (wild oat [11]): 0 (Herbicidal rate of 5% or less (almost no effect)) | Herbicidal effect by foliage application, L: windgrass (windgrass [12]): 3 (Herbicidal rate of 40% or more and less than 70%) | O: lambsquarters, herbicidal effect grade (lambsquarters [13]): 0 (Herbicidal rate of 5% or less (almost no effect)) | herbicidal effect on Chinese sprangletop (D) (Chinese sprangletop): 1 (Herbicidal rate of 5% or more and less than 20%) | herbicidal effect on barnyard grass (H) (barnyard grass [14]): 4 (Herbicidal rate of 70% or more and less than 90%) | Herbicidal effect by foliage application, M: velvetleaf (velvetleaf [15]): 1 (Herbicidal rate of 5% or more and less than 20%) | F: southern crabgrass, herbicidal effect grade (southern crabgrass [16]): 0 (Herbicidal rate of 5% or less (almost no effect)) | Herbicidal effect by foliage application, G: green foxtail (green foxtail [17]): 1 (Herbicidal rate of 5% or more and less than 20%) | H: barnyard grass, herbicidal effect grade (barnyard grass [18]): 0 (Herbicidal rate of 5% or less (almost no effect)) | Herbicidal effect by foliage application, K: Italian ryegrass (Italian ryegrass [19]): 0 (Herbicidal rate of 5% or less (almost no effect)) | P: chickweed, herbicidal effect grade (chickweed [20]): 0 (Herbicidal rate of 5% or less (almost no effect)) | L: windgrass, herbicidal effect grade (windgrass [21]): 0 (Herbicidal rate of 5% or less (almost no effect)) | Herbicidal effect by foliage application, F: southern crabgrass (southern crabgrass [22]): 0 (Herbicidal rate of 5% or less (almost no effect)) | herbicidal effect on rice flat sedge (E) (rice flat sedge): 0 (Herbicidal rate of 5% or less (almost no effect)) | Herbicidal effect by foliage application, J: blackgrass (blackgrass [23]): 0 (Herbicidal rate of 5% or less (almost no effect)) | M: velvetleaf, herbicidal effect grade (velvetleaf [24]): 2 (Herbicidal rate of 20% or more and less than 40%) | Herbicidal effect by foliage application, I: wild oat (wild oat [25]): 3 (Herbicidal rate of 40% or more and less than 70%)

CCCC(=O)Oc1c(C)nn(C)c(=O)c1-c1c(-c2ccccc2OC)sc2cc(Cl)c(Cl)cc12 [5-042]
N: redroot pigweed, herbicidal effect grade (redroot pigweed [1]): 3 (Herbicidal rate of 40% or more and less than 70%) | G: green foxtail, herbicidal effect grade (green foxtail [2]): 0 (Herbicidal rate of 5% or less (almost no effect)) | J: blackgrass, herbicidal effect grade (blackgrass [3]): 0 (Herbicidal rate of 5% or less (almost no effect)) | R: persian speedwell, herbicidal effect grade (persian speedwell [4]): 0 (Herbicidal rate of 5% or less (almost no effect)) | Herbicidal effect by foliage application, H: barnyard grass (barnyard grass [5]): 4 (Herbicidal rate of 70% or more and less than 90%) | Herbicidal effect by foliage application, O: lambsquarters (lambsquarters [6]): 5 (Herbicidal rate of 90% or more (almost completely withered)) | K: Italian ryegrass, herbicidal effect grade (Italian ryegrass [7]): 0 (Herbicidal rate of 5% or less (almost no effect)) | Herbicidal effect by foliage application, R: persian speedwell (persian speedwell [8]): 4 (Herbicidal rate of 70% or more and less than 90%) | Herbicidal effect by foliage application, N: redroot pigweed (redroot pigweed [9]): 4 (Herbicidal rate of 70% or more and less than 90%) | Herbicidal effect by foliage application, P: chickweed (chickweed [10]): 4 (Herbicidal rate of 70% or more and less than 90%) | I: wild oat, herbicidal effect grade (wild oat [11]): 0 (Herbicidal rate of 5% or less (almost no effect)) | Herbicidal effect by foliage application, L: windgrass (windgrass [12]): 0 (Herbicidal rate of 5% or less (almost no effect)) | O: lambsquarters, herbicidal effect grade (lambsquarters [13]): 1 (Herbicidal rate of 5% or more and less than 20%) | herbicidal effect on Chinese sprangletop (D) (Chinese sprangletop): 2 (Herbicidal rate of 20% or more and less than 40%) | herbicidal effect on barnyard grass (H) (barnyard grass [14]): 5 (Herbicidal rate of 90% or more (almost completely withered)) | Herbicidal effect by foliage application, M: velvetleaf (velvetleaf [15]): 5 (Herbicidal rate of 90% or more (almost completely withered)) | F: southern crabgrass, herbicidal effect grade (southern crabgrass [16]): 0 (Herbicidal rate of 5% or less (almost no effect)) | Herbicidal effect by foliage application, G: green foxtail (green foxtail [17]): 4 (Herbicidal rate of 70% or more and less than 90%) | H: barnyard grass, herbicidal effect grade (barnyard grass [18]): 0 (Herbicidal rate of 5% or less (almost no effect)) | Herbicidal effect by foliage application, K: Italian ryegrass (Italian ryegrass [19]): 0 (Herbicidal rate of 5% or less (almost no effect)) | P: chickweed, herbicidal effect grade (chickweed [20]): 3 (Herbicidal rate of 40% or more and less than 70%) | L: windgrass, herbicidal effect grade (windgrass [21]): 0 (Herbicidal rate of 5% or less (almost no effect)) | Herbicidal effect by foliage application, F: southern crabgrass (southern crabgrass [22]): 0 (Herbicidal rate of 5% or less (almost no effect)) | herbicidal effect on rice flat sedge (E) (rice flat sedge): 4 (Herbicidal rate of 70% or more and less than 90%) | Herbicidal effect by foliage application, J: blackgrass (blackgrass [23]): 0 (Herbicidal rate of 5% or less (almost no effect)) | M: velvetleaf, herbicidal effect grade (velvetleaf [24]): 0 (Herbicidal rate of 5% or less (almost no effect)) | Herbicidal effect by foliage application, I: wild oat (wild oat [25]): 0 (Herbicidal rate of 5% or less (almost no effect))
